This is an account of results in ChEMBL document CHEMBL4038345, “Design, Synthesis, and Biological Evaluation of Novel Selenium-Containing Isocombretastatins and Phenstatins as Antitumor Agents” (J Med Chem, 2017).

The subject of series [1] is A549. Kind of series: Induction of apoptosis in human A549 cells assessed as live cells at 10 nM for 24 hrs by annexin V-FITC/propidium iodide staining-based flow cytometry analysis (reference value: 99.15%). It is filed as functional. (A flow cytometer gives signals particle by particle.)
Series [2] relates to A549. Kind of series: Cell cycle arrest in human A549 cells assessed as increase in accumulation of cells at G2/M phase at 1 nM after 24 hrs by propidium iodide staining-based flow cytometry method. In kind it is functional.
Series [3] concerns A549. The series is described as follows: Induction of apoptosis in human A549 cells assessed as necrotic cells at 10 nM for 24 hrs by annexin V-FITC/propidium iodide staining-based flow cytometry analysis (reference value: 0.03%). In kind it is functional.
The subject of series [4] is A549. The series is described as follows: Induction of apoptosis in human A549 cells assessed as live cells at 1 nM for 48 hrs by annexin V-FITC/propidium iodide staining-based flow cytometry analysis (reference value: 99.01%). It is filed as functional.
Series [5] is described as follows: Metabolic stability in Sprague-Dawley rat liver microsomes assessed as compound remaining after 150 mins in presence of NADPH by UV-based HPLC-MS/MS analysis. Conditions: Sprague-Dawley, liver microsomes, read-out: Stability. In kind it is ADME, microsome. In general terms: Microsomes from liver hold many membrane-bound enzymes, among them those of drug oxidation.

Series [6] relates to A549. Kind of series: Induction of apoptosis in human A549 cells assessed as early apoptotic cells at 10 nM for 24 hrs by annexin V-FITC/propidium iodide staining-based flow cytometry analysis (reference value: 0.82%). In kind it is functional.
Series [7] relates to A549. The series is described as follows: Induction of apoptosis in human A549 cells assessed as necrotic cells at 1 nM for 48 hrs by annexin V-FITC/propidium iodide staining-based flow cytometry analysis (reference value: 0.02%). In kind it is functional.
Series [8] is described as follows: Metabolic stability in Sprague-Dawley rat liver microsomes assessed as compound remaining after 60 mins in presence of NADPH by UV-based HPLC-MS/MS analysis. It is filed as ADME, microsome. Conditions: read-out: Stability.
The nature of series [9]: Metabolic stability in Sprague-Dawley rat liver microsomes assessed as compound remaining after 30 mins in presence of NADPH by UV-based HPLC-MS/MS analysis. It is filed as ADME, microsome. Conditions: read-out: Stability.
The test system of series [10] is A549. The series is described as follows: Disruption of mitochondrial membrane potential in human A549 cells at 5 nM after 24 hrs by JC1 staining-based flow cytometry method (reference value: 0.62%). It is filed as functional.
The subject of a further series is HeLa. Kind of series: cells. Conditions: Homo sapiens, 48 h.
The nature of series [11]: Half life in Sprague-Dawley rat by UV-based HPLC-MS/MS analysis. As to conditions: in vivo. In kind it is ADME.
The subject of series [12] is A549. Kind of series: Disruption of mitochondrial membrane potential in human A549 cells assessed as intact mitochondrial membrane at 5 nM after 24 hrs by JC1 staining-based flow cytometry method (reference value: 99.18%). It is filed as functional.
Series [13] concerns A549. The series is described as follows: Induction of apoptosis in human A549 cells assessed as early apoptotic cells at 10 nM for 48 hrs by annexin V-FITC/propidium iodide staining-based flow cytometry analysis (reference value: 0.97%). It is filed as functional.
Series [14] concerns A549. Kind of series: Induction of apoptosis in human A549 cells assessed as late apoptotic cells at 10 nM for 24 hrs by annexin V-FITC/propidium iodide staining-based flow cytometry analysis. It is filed as functional.
Series [15] in a line: Resistance index, ratio of IC50 for human A549/CDDP cells to IC50 for human A549 cells. It is filed as functional.
Series [16] has as its system A549. Kind of series: Induction of apoptosis in human A549 cells assessed as early apoptotic cells at 1 nM for 48 hrs by annexin V-FITC/propidium iodide staining-based flow cytometry analysis (reference value: 0.97%). It is filed as functional.
In series [17] the test system is A549. Kind of series: Disruption of mitochondrial membrane potential in human A549 cells at 10 nM after 24 hrs by JC1 staining-based flow cytometry method (reference value: 0.62%). It is filed as functional.
The species entered for another series is Sus scrofa. The series is described as follows: (§1) Inhibition of porcine brain tubulin polymerization measured every 60 seconds for 90 mins by DAPI staining-based fluorescence assay.
A short description of series [18]: as §1. Details: species or system Sus scrofa.

Take `C=C(c1ccc(OC)c(O)c1)c1cc(OC)c(OC)c([Se]C)c1`: the Activity in the series on A549 [1] came out at 48.49%; in the series with A549 [2] it was 50%; with A549 [3], 0.08%; in the series on A549 [4], 80.49%; with A549 [6], 49.48%; in the series with A549 [7], 0.86%. Further, the Activity in the series with A549 [10] came to 42.63%; in the series on A549 [12] it was 57.63%; in the series on A549 [13] it was 42.57%; in the series on A549 [14], 1.45%; in the series on A549 [16], 15.79%; with A549 [17] it was 90.78%. In series [5], the remaining at 2.5 h is 25.8%. For the same compound, in series [8], the remaining at 1 h was determined as 62.3%. The remaining at 0.5 h in series [9] was 81.1%. Further, the IC50 (usually the concentration needed to halve the response being measured) in the series on HeLa worked out at 3 nM; in series [18], 1380 nM. The half-life – broadly, the time in which the quantity being followed falls by half – in series [11] came to 1.24 h. The “Ratio IC50” value in series [15] was 8.8. For the same compound, the inhibition entry in the series filed under Sus scrofa is “Dose-dependent effect”.
